{
  "source": "patent US8846928B2",
  "about": "(Portola Pharmaceuticals, Inc., priority 2010, dated 2014)",
  "data": [
    {"target": "T1, full length active recombinant SYK enzyme (Homo sapiens, UniProt P43405)", "T1 construct": "full length active recombinant SYK enzyme (Millipore, Calif.); purchased Millipore", "test": "Inhibition of Syk tyrosine phosphorylation activity (LANCE TR-FRET kinase assay)", "format": "biochemical", "units": {"IC50": "µM"}, "values": [
      {"smiles": "CC[C@H](Nc1nc(Nc2cccc(C)c2)c(C(N)=O)cc1F)C1(N)CC1", "note": "[Example 369, (S)-6-(1-(1-aminocyclopropyl)propylamino)-5-fluoro-2-(m-tolylamino)nicotinamide]", "IC50": "0.1 to 1"},
      {"smiles": "NC(=O)c1cc(F)c(N[C@@H]2CCCC[C@@H]2N)nc1Nc1csc2ncccc12", "note": "[Example 393]", "IC50": "0.001 to 0.01"},
      {"smiles": "NC(=O)c1ccc(N[C@@H]2CCCC[C@@H]2N)nc1Nc1cccnc1", "note": "[Example 180, 6-((1R,2S)-2-aminocyclohexylamino)-2-(pyridin-3-ylamino)nicotinamide]", "IC50": "0.001 to 0.01"},
      {"smiles": "Cc1ccc(Nc2nc(NC[C@@H](N)CC(F)F)c(F)cc2C(N)=O)cc1", "note": "[Example 381, (S)-2-(p-toluidino)-6-(2-amino-4,4-difluorobutylamino)-5-fluoronicotinamide]", "IC50": "0.1 to 1"},
      {"smiles": "NC(=O)c1cc(F)c(N[C@@H]2CCCC[C@@H]2N)nc1Nc1ccc(-n2cccc2)cc1", "note": "[Example 188, 2-(4-(1H-pyrrol-1-yl)phenylamino)-6-((1R,2S)-2-aminocyclohexylamino)-5-fluoronicotinamide]", "IC50": "0.001 to 0.01"},
      {"smiles": "Cc1ccc(Nc2nc(N[C@@H]3CCCC(F)(F)[C@@H]3N)c(F)cc2C(N)=O)cc1", "note": "[Example 334, 6-((1R,2R)-2-amino-3,3-difluorocyclohexylamino)-5-fluoro-2-(p-tolylamino)nicotinamide]", "IC50": "0.1 to 1"},
      {"smiles": "NC(=O)c1cc(F)c(N[C@@H]2CCCC[C@@H]2N)nc1Nc1cccc(-c2ncccn2)c1", "note": "[Example 55, 6-((1R,2S)-2-aminocyclohexylamino)-5-fluoro-2-(3-(pyrimidin-2-yl)phenylamino)nicotinamide]", "IC50": "0.001 to 0.01"},
      {"smiles": "NC(=O)c1cc(F)c(N[C@@H]2CCCC[C@@H]2N)nc1Nc1cccc(-c2nccs2)c1", "note": "[Example 189, 6-((1R,2S)-2-aminocyclohexylamino)-5-fluoro-2-(3-(thiazol-2-yl)phenylamino)nicotinamide]", "IC50": "0.001 to 0.01"},
      {"smiles": "CC[C@@H](Nc1ccc(C(N)=O)c(Nc2csc3ncccc23)n1)C(N)=O", "note": "[Example 425, (R)-6-(1-amino-1-oxobutan-2-ylamino)-2-(thieno[2,3-b]pyridin-3-ylamino)nicotinamide]", "IC50": "0.01 to 0.1"},
      {"smiles": "NC(=O)c1cc(F)c(N[C@@H]2CCCC[C@@H]2N)nc1Nc1cnsc1", "note": "[Example 178, 6-((1R,2S)-2-aminocyclohexylamino)-5-fluoro-2-(isothiazol-4-ylamino)nicotinamide]", "IC50": "0.01 to 0.1"},
      {"smiles": "Cc1cc(Nc2cc(N[C@H](Cc3ccc(F)cc3)C(N)=O)c(F)cc2C(N)=O)sn1", "note": "[Example 27, (R)-4-(1-amino-3-(4-fluorophenyl)-1-oxopropan-2-ylamino)-5-fluoro-2-(3-methylisothiazol-5-ylamino)benzamide]", "IC50": "0.01 to 0.1"},
      {"smiles": "Cc1cc(Nc2cc(N[C@@H](C(N)=O)c3ccccc3)ccc2C(N)=O)sn1", "note": "[Example 18, (R)-4-(2-amino-2-oxo-1-phenylethylamino)-2-(3-methylisothiazol-5-ylamino)benzamide]", "IC50": "0.1 to 1"},
      {"smiles": "NC(=O)c1cc(F)c(N[C@@H]2CCCC[C@@H]2N)nc1Nc1cncc(-n2ccnc2)c1", "note": "[Example 160]", "IC50": "0.01 to 0.1"},
      {"smiles": "NC(=O)c1cc(F)c(NC2(C(N)=O)CCC2)nc1Nc1cnc2ccccc2c1", "note": "[Example 379, 6-(1-carbamoylcyclobutylamino)-5-fluoro-2-(quinolin-3-ylamino)nicotinamide]", "IC50": "0.1 to 1"},
      {"smiles": "Cc1cc(Nc2cc(N[C@H](Cc3ccccc3)C(N)=O)ccc2C(N)=O)sn1", "note": "[Example 14, (R)-4-(1-amino-1-oxo-3-phenylpropan-2-ylamino)-2-(3-methylisothiazol-5-ylamino)benzamide]", "IC50": "0.01 to 0.1"},
      {"smiles": "Cc1cc(Nc2cc(N[C@@H](C(N)=O)C(C)C)ccc2C(N)=O)sn1", "note": "[Example 11, (R)-4-(1-amino-3-methyl-1-oxobutan-2-ylamino)-2-(3-methylisothiazol-5-ylamino)benzamide]", "IC50": "0.1 to 1"},
      {"smiles": "CC[C@@H](Nc1cc(Nc2cc(C)ns2)c(C(N)=O)cc1F)C(N)=O", "note": "[Example 26, (R)-4-(1-amino-1-oxobutan-2-ylamino)-5-fluoro-2-(3-methylisothiazol-5-ylamino)benzamide]", "IC50": "0.01 to 0.1"},
      {"smiles": "Cc1cc(Nc2cc(N[C@H](CC3CCCCC3)C(N)=O)ccc2C(N)=O)sn1", "note": "[Example 17, (R)-4-(1-amino-3-cyclohexyl-1-oxopropan-2-ylamino)-2-(3-methylisothiazol-5-ylamino)benzamide]", "IC50": "0.01 to 0.1"},
      {"smiles": "NC(=O)c1ccc(N[C@@H]2CCCC[C@@H]2N)nc1Nc1ccc2nc(O)sc2c1", "note": "[Example 404, 6-((1R,2S)-2-aminocyclohexylamino)-2-(2-hydroxybenzo[d]thiazol-6-ylamino)nicotinamide]", "IC50": "0.001 to 0.01"},
      {"smiles": "COc1ncc(Nc2nc(N[C@@H]3CCCC[C@@H]3N)c(F)cc2C(N)=O)cn1", "note": "[Example 166, 6-((1R,2S)-2-aminocyclohexylamino)-5-fluoro-2-(2-methoxypyrimidin-5-ylamino)nicotinamide]", "IC50": "0.1 to 1"},
      {"smiles": "Cn1ncc2c(Nc3nc(N[C@H]4[C@@H](N)CCCC4(F)F)c(F)cc3C(N)=O)cccc21", "note": "[Example 389, 6-((1S,6S)-6-amino-2,2-difluorocyclohexylamino)-5-fluoro-2-(1-methyl-1H-indazol-4-ylamino)nicotinamide]", "IC50": "0.001 to 0.01"},
      {"smiles": "NC(=O)c1ccc(N[C@@H]2CCCC[C@@H]2N)nc1Nc1ccncc1", "note": "[Example 181, 6-((1R,2S)-2-aminocyclohexylamino)-2-(pyridin-4-ylamino)nicotinamide]", "IC50": "0.001 to 0.01"},
      {"smiles": "NC(=O)c1cc(F)c(N[C@@H]2CCCC(F)(F)[C@@H]2N)nc1Nc1cc(F)cc(F)c1", "note": "[Example 337, 6-((1R,2R)-2-amino-3,3-difluorocyclohexylamino)-2-(3,5-difluorophenylamino)-5-fluoronicotinamide]", "IC50": "0.1 to 1"},
      {"smiles": "CC[C@@H](Nc1ccc(C(N)=O)c(Nc2ccc3ncccc3c2)n1)C(N)=O", "note": "[Example 205, (R)-6-(1-amino-1-oxobutan-2-ylamino)-2-(quinolin-6-ylamino)nicotinamide]", "IC50": "0.001 to 0.01"},
      {"smiles": "NC(=O)c1cc(F)c(N[C@@H]2CCCC[C@@H]2N)nc1Nc1cnc2ccccc2c1", "note": "[Example 70, 6-((1R,2S)-2-aminocyclohexylamino)-5-fluoro-2-(quinolin-3-ylamino)nicotinamide]", "IC50": "0.001 to 0.01"},
      {"smiles": "NC(=O)c1ccc(N[C@H](CC2CC2)C(N)=O)nc1Nc1cnc2ccccc2c1", "note": "[Example 212, (R)-6-(1-amino-3-cyclopropyl-1-oxopropan-2-ylamino)-2-(quinolin-3-ylamino)nicotinamide]", "IC50": "0.001 to 0.01"},
      {"smiles": "N#Cc1cc(C(N)=O)c(Nc2cccc(-c3ccccn3)c2)nc1N[C@@H]1CCCC[C@@H]1N", "note": "[Example 131, 6-((1R,2S)-2-aminocyclohexylamino)-5-cyano-2-(3-(pyridin-2-yl)phenylamino)nicotinamide]", "IC50": "0.001 to 0.01"},
      {"smiles": "NC(=O)c1cc(F)c(N[C@@H]2CCCC[C@@H]2N)nc1Nc1cccc(-n2cnnn2)c1", "note": "[Example 44, 2-(3-(1H-tetrazol-1-yl)phenylamino)-6-((1R,2S)-2-aminocyclohexylamino)-5-fluoronicotinamide]", "IC50": "0.001 to 0.01"},
      {"smiles": "Cc1cccc(Nc2nc(N[C@@H]3CCCC[C@@H]3N)c(F)cc2C(N)=O)c1C", "note": "[Example 319, 6-((1R,2S)-2-aminocyclohexylamino)-2-(2,3-dimethylphenylamino)-5-fluoronicotinamide]", "IC50": "0.01 to 0.1"},
      {"smiles": "CCC[C@@H](Nc1nc(Nc2cc(C)ns2)c(C(N)=O)cc1F)C(N)=O", "note": "[Example 202, (R)-6-(1-amino-1-oxopentan-2-ylamino)-5-fluoro-2-(3-methylisothiazol-5-ylamino)nicotinamide]", "IC50": "0.01 to 0.1"},
      {"smiles": "NC(=O)c1ccc(N[C@@H]2CCCC[C@@H]2N)nc1Nc1ccc2ncccc2c1", "note": "[Example 134, 2-(quinolin-6-ylamino)-6-((1R,2S)-2-aminocyclohexylamino)nicotinamide]", "IC50": "0.001 to 0.01"},
      {"smiles": "COc1ccc(C[C@@H](Nc2cc(Nc3cc(C)ns3)c(C(N)=O)cc2F)C(N)=O)cc1", "note": "[Example 36, (R)-4-(1-amino-3-(4-methoxyphenyl)-1-oxopropan-2-ylamino)-5-fluoro-2-(3-methylisothiazol-5-ylamino)benzamide]", "IC50": "0.01 to 0.1"},
      {"smiles": "Cc1ccc(Nc2nc(N[C@@H]3CCCC[C@@H]3N)c(F)cc2C(N)=O)cc1", "note": "[Example 315, 6-((1R,2S)-2-aminocyclohexylamino)-5-fluoro-2-(p-tolylamino)nicotinamide]", "IC50": "0.001 to 0.01"},
      {"smiles": "CC(C)C[C@H](CN)Nc1nc(Nc2ccc3ncccc3c2)c(C(N)=O)cc1C#N", "note": "[Example 122, (R)-6-(1-amino-4-methylpentan-2-ylamino)-5-cyano-2-(quinolin-6-ylamino)nicotinamide]", "IC50": "0.001 to 0.01"},
      {"smiles": "CC[C@@H](Nc1nc(Nc2ccc3c(ccn3C)c2)c(C(N)=O)cc1F)C(N)=O", "note": "[Example 244, (R)-6-(1-amino-1-oxobutan-2-ylamino)-5-fluoro-2-(1-methyl-1H-indol-5-ylamino)nicotinamide]", "IC50": "0.1 to 1"},
      {"smiles": "NC(=O)c1cc(F)c(N[C@@H]2CCOC[C@@H]2N)nc1Nc1cccc(-n2nccn2)c1", "note": "[Example 279, 2-(3-(2H-1,2,3-triazol-2-yl)phenylamino)-6-((3R,4R)-3-aminotetrahydro-2H-pyran-4-ylamino)-5-fluoronicotinamide]", "IC50": "0.001 to 0.01"},
      {"smiles": "NC(=O)c1cc(F)c(N[C@@H]2CCOC[C@@H]2N)nc1Nc1cccc(Cl)c1", "note": "[Example 386, 6-((3R,4R)-3-aminotetrahydro-2H-pyran-4-ylamino)-2-(3-chlorophenylamino)-5-fluoronicotinamide]", "IC50": "0.001 to 0.01"},
      {"smiles": "Cc1cc(Nc2cc(N[C@@H](C(N)=O)C3CC3)c(F)cc2C(N)=O)sn1", "note": "[Example 215, (R)-4-(2-amino-1-cyclopropyl-2-oxoethylamino)-5-fluoro-2-(3-methylisothiazol-5-ylamino)benzamide]", "IC50": "0.01 to 0.1"},
      {"smiles": "NC(=O)c1cc(F)c(N[C@@H]2CCCC[C@@H]2N)nc1Nc1csc2ccncc12", "note": "[Example 394, 6-((1R,2S)-2-aminocyclohexylamino)-5-fluoro-2-(thieno[3,2-c]pyridin-3-ylamino)nicotinamide]", "IC50": "0.01 to 0.1"}
    ]}
  ]
}
